Patent US20260285850A1, “SUBSTITUTED OXAZOLIDINONES AND IMIDAZOLINONES AS HERBICIDES” (FMC CORPORATION, priority 2023, published 2026)

Legend:
Format in all cases: in vivo
[1] = system: barnyardgrass (Echinochloa crus-galli); assay: Test A preemergence soil spray, visual injury rating 0-100; conditions: 10 days, 0 = no effect, 100 = complete control
Procedure, shortened: (§1)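 Grow plants in loam soil blended with sand. Apply formulated compound (non-phytotoxic solvent, surfactant) as a directed soil spray before emergence, or to plants at the one- to two-leaf stage after emergence. Hold in greenhouse 10 days, then rate injury visually versus untreated controls on a 0-100 scale.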

[2] = system: blackgrass (Alopecurus myosuroides); assay: as above; conditions: 10 days, 0 = no effect, 100 = complete control
Procedure, shortened: as §1

corn (Zea mays) [3] = assay: as above; conditions: 10 days, 0 = no effect, 100 = complete control
Procedure, shortened: as §1

[4] = system: green foxtail (Setaria viridis); assay: as above; conditions: 10 days, 0 = no effect, 100 = complete control
Procedure, shortened: as §1

kochia (Bassia scoparia) [5] = assay: as above; conditions: 10 days, 0 = no effect, 100 = complete control
Procedure, shortened: as §1

[6] = system: oat, wild (wild oat, Avena fatua); assay: as above; conditions: 10 days, 0 = no effect, 100 = complete control
Procedure, shortened: as §1

[7] = system: palmer (palmer amaranth, palmer pigweed, Amaranthus palmeri); assay: as above; conditions: 10 days, 0 = no effect, 100 = complete control
Procedure, shortened: as §1

[8] = system: ragweed (common ragweed, Ambrosia artemisiifolia); assay: as above; conditions: 10 days, 0 = no effect, 100 = complete control
Procedure, shortened: as §1

[9] = system: ryegrass, Italian (italian ryegrass, Lolium multiflorum); assay: as above; conditions: 10 days, 0 = no effect, 100 = complete control
Procedure, shortened: as §1

soybean (Glycine max) [10] = assay: as above; conditions: 10 days, 0 = no effect, 100 = complete control
Procedure, shortened: as §1

[11] = system: wheat (Triticum aestivum); assay: as above; conditions: 10 days, 0 = no effect, 100 = complete control
Procedure, shortened: as §1

[12] = system: barnyardgrass (Echinochloa crus-galli); assay: Test A postemergence application, visual injury rating 0-100; conditions: 10 days
Procedure, shortened: as §1

[13] = system: blackgrass (Alopecurus myosuroides); assay: as above; conditions: 10 days
Procedure, shortened: as §1

corn (Zea mays) [14] = assay: as above; conditions: 10 days
Procedure, shortened: as §1

[15] = system: galium (catchweed bedstraw, Galium aparine); assay: as above; conditions: 10 days
Procedure, shortened: as §1

[16] = system: green foxtail (Setaria viridis); assay: as above; conditions: 10 days
Procedure, shortened: as §1

[17] = system: horseweed (Erigeron canadensis); assay: as above; conditions: 10 days
Procedure, shortened: as §1

kochia (Bassia scoparia) [18] = assay: as above; conditions: 10 days
Procedure, shortened: as §1

[19] = system: oat, wild (wild oat, Avena fatua); assay: as above; conditions: 10 days
Procedure, shortened: as §1

[20] = system: palmer (palmer amaranth, palmer pigweed, Amaranthus palmeri); assay: as above; conditions: 10 days
Procedure, shortened: as §1

[21] = system: ragweed (common ragweed, Ambrosia artemisiifolia); assay: as above; conditions: 10 days
Procedure, shortened: as §1

[22] = system: ryegrass, Italian (italian ryegrass, Lolium multiflorum); assay: as above; conditions: 10 days
Procedure, shortened: as §1

soybean (Glycine max) [23] = assay: as above; conditions: 10 days
Procedure, shortened: as §1

[24] = system: wheat (Triticum aestivum); assay: as above; conditions: 10 days
Procedure, shortened: as §1

[25] = system: barnyardgrass (Echinochloa crusgalli); assay: Test B flooded paddy test, visual plant response rating 0-100; conditions: 250 g ai/ha, Flood, applied to paddy water, evaluated after 13 days
Procedure, shortened: (§2)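 Visual evaluation after 13 days. Water-applied treatment, 3 cm flood depth held constant, plants at 2-leaf stage at treatment.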

[26] = system: ducksalad (Heteranthera limosa); assay: as above; conditions: 250 g ai/ha, Flood, applied to paddy water, evaluated after 13 days
Procedure, shortened: as §2

rice (Oryza sativa) = assay: as above; conditions: 250 g ai/ha, Flood, applied to paddy water, evaluated after 13 days
Procedure, shortened: as §2

[27] = system: sedge, umbrella (small-flower umbrella sedge, Cyperus difformis); assay: as above; conditions: 250 g ai/ha, Flood, applied to paddy water, evaluated after 13 days
Procedure, shortened: as §2

[28] = 31 g ai/ha, postemergence, 0 = no effect, 100 = complete control
[29] = Postemergence, 125 g ai/ha, 0 is no effect, 100 is complete control

In the case of `CC(C)OC(=O)C1C=CC(NC(=O)C2(C)CN(c3cc(F)cc(Cl)c3)C(=O)O2)C1` (stereo not shown) [Compound 4], the “Barnyardgrass plant response rating (0-100)” value ([1]; 31 g ai/ha) is reported as 50, the “Barnyardgrass plant response rating (0 to 100 scale)” value ([1]; 125 g ai/ha) is reported as 100 and the “Blackgrass plant response rating (0-100)” value ([2]; 31 g ai/ha) is reported as 0. For the same compound, the “Blackgrass plant response rating (0 to 100 scale)” value ([2]; 125 g ai/ha) was 60, the “Corn plant response rating (0-100)” value (corn (Zea mays) [3]; 31 g ai/ha) was 40 and the “Corn plant response rating (0 to 100 scale)” value (corn (Zea mays) [3]; 125 g ai/ha) was 70. For the same compound, the “Foxtail, Green plant response rating (0-100)” value ([4]; 31 g ai/ha) was 0, the “Foxtail, Green plant response rating (0 to 100 scale)” value ([4]; 125 g ai/ha) was 100 and the “Kochia plant response rating (0-100)” value (kochia (Bassia scoparia) [5]; 31 g ai/ha) was 40. For the same compound, the “Kochia plant response rating (0 to 100 scale)” value (kochia (Bassia scoparia) [5]; 125 g ai/ha) was 90, the “Oat, Wild plant response rating (0-100)” value ([6]; 31 g ai/ha) was 50 and the “Oat, Wild plant response rating (0 to 100 scale)” value ([6]; 125 g ai/ha) was 80. For the same compound, the “Amaranth, Palmer plant response rating (0-100)” value ([7]; 31 g ai/ha) was 30, the “Amaranth, Palmer plant response rating (0 to 100 scale)” value ([7]; 125 g ai/ha) was 100 and the “Ragweed plant response rating (0-100)” value ([8]; 31 g ai/ha) was 0. The “Ragweed plant response rating (0 to 100 scale)” value ([8]; 125 g ai/ha) was 0, the “Ryegrass, Italian plant response rating (0-100)” value ([9]; 31 g ai/ha) was 50 and the “Ryegrass, Italian plant response rating (0 to 100 scale)” value ([9]; 125 g ai/ha) was 80. For the same compound, the “Soybean plant response rating (0-100)” value (soybean (Glycine max) [10]; 31 g ai/ha) was 0, the “Soybean plant response rating (0 to 100 scale)” value (soybean (Glycine max) [10]; 125 g ai/ha) was 70 and the “Wheat plant response rating (0-100)” value ([11]; 31 g ai/ha) was 40. For the same compound, the “Wheat plant response rating (0 to 100 scale)” value ([11]; 125 g ai/ha) was 90, the “Barnyardgrass plant response rating (0-100)” value [12, 28] was 100 and the “Barnyardgrass plant response rating (0 to 100 scale)” value [12, 29] was 100. For the same compound, the “Blackgrass plant response rating (0-100)” value [13, 28] was 80, the “Blackgrass plant response rating (0 to 100 scale)” value [13, 29] was 90 and the “Corn plant response rating (0-100)” value (corn (Zea mays) [14]; [28]) was 90. For the same compound, the “Corn plant response rating (0 to 100 scale)” value (corn (Zea mays) [14]; [29]) was 100, the “Galium plant response rating (0-100)” value [15, 28] was 80 and the “Galium plant response rating (0 to 100 scale)” value [15, 29] was 90. The “Foxtail, Green plant response rating (0-100)” value [16, 28] was 90, the “Foxtail, Green plant response rating (0 to 100 scale)” value [16, 29] was 90 and the “Horseweed plant response rating (0-100)” value [17, 28] was 0. The “Horseweed plant response rating (0 to 100 scale)” value [17, 29] was 70, the “Kochia plant response rating (0-100)” value (kochia (Bassia scoparia) [18]; [28]) was 70 and the “Kochia plant response rating (0 to 100 scale)” value (kochia (Bassia scoparia) [18]; [29]) was 80. The “Oat, Wild plant response rating (0-100)” value [19, 28] was 90, the “Oat, Wild plant response rating (0 to 100 scale)” value [19, 29] was 90 and the “Amaranth, Palmer plant response rating (0-100)” value [20, 28] was 50. For the same compound, the “Amaranth, Palmer / Pigweed, Palmer plant response rating (0 to 100 scale)” value [20, 29] was 90, the “Ragweed plant response rating (0-100)” value [21, 28] was 60 and the “Ragweed plant response rating (0 to 100 scale)” value [21, 29] was 80. The “Ryegrass, Italian plant response rating (0-100)” value [22, 28] was 60, the “Ryegrass, Italian plant response rating (0 to 100 scale)” value [22, 29] was 90 and the “Soybean plant response rating (0-100)” value (soybean (Glycine max) [23]; [28]) was 80. For the same compound, the “Soybean plant response rating (0 to 100 scale)” value (soybean (Glycine max) [23]; [29]) was 80, the “Wheat plant response rating (0-100)” value [24, 28] was 90 and the “Wheat plant response rating (0 to 100 scale)” value [24, 29] was 90. For the same compound, the “Plant response rating, Barnyardgrass (0 to 100 scale, 0 is no effect and 100 is complete control)” value [25] was 90, the “Plant response rating, Ducksalad (0 to 100 scale, 0 is no effect and 100 is complete control)” value [26] was 70 and the “Plant response rating, Rice (0 to 100 scale, 0 is no effect and 100 is complete control)” value (rice (Oryza sativa)) was 20. For the same compound, the “Plant response rating, Sedge, Umbrella (0 to 100 scale, 0 is no effect and 100 is complete control)” value [27] was 95.
